Results on 16 compounds are retold here after patent US11655216B2 (priority 2016, dated 2023).

The target in experiment [1] is T1, glutathione-S-transferase (GST) tagged LXRalpha LBD (ligand binding domain) (Homo sapiens, UniProt Q13133).
T1 construct: purchased Invitrogen pv4655
T1 sequence (Q13133 209-447 limits assumed): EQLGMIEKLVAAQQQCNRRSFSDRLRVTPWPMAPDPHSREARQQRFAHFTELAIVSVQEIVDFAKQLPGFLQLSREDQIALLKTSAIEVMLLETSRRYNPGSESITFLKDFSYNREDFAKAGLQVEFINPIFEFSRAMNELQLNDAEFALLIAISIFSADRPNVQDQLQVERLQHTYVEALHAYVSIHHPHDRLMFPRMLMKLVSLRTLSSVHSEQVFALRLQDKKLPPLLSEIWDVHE
The experiment can be described thus: biochemical. Conditions: for EC50 / LXR alpha IP: potency (Inflection Point), compound-induced co-activator recruitment, TR-FRET. In short, it runs like this: (§1)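 TR-FRET coactivator recruitment read-out: compounds first received either LBD, followed by a mix of terbium-labelled anti-GST antibody and fluorescein coactivator peptide. Signal measured by time-resolved FRET once plates had incubated at room temperature.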
For orientation: In TR-FRET formats the signal depends on donor and acceptor labels being close together.

The target in experiment [2] is T2, glutathione-S-transferase (GST) tagged LXRbeta LBD (ligand binding domain) (Homo sapiens, UniProt P55055).
T2 construct: purchased Invitrogen pv4658
T2 sequence (P55055 222-460 limits assumed): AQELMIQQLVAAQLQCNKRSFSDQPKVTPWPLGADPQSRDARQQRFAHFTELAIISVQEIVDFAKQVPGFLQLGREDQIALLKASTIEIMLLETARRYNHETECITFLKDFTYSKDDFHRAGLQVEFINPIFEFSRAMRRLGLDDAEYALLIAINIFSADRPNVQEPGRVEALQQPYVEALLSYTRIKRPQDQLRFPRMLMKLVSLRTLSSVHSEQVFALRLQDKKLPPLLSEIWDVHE
The experiment can be described thus: LanthaScreen TR-FRET Liver X Receptor Coactivator Assay, LXR beta. The experiment is classed as biochemical. The settings on record: for EC50: LXR beta IP, potency (Inflection Point), compound-induced co-activator recruitment, TR-FRET; for Emax: read-out: LXR beta actiivty at max dose, efficacy (% Emax) in relation to reference dual agonist T0901317. In short, it runs like this: as §1

The mark [3] stands for this setting: read-out: LXR alpha actiivty at max dose, efficacy (% Emax) in relation to reference dual agonist T0901317.

Structures are written as SMILES. Where two headings read alike, the source gives them in different places.

With `C[C@H](CCCC1CCN(C(=O)[C@](O)(c2ccccc2)C(F)(F)F)CC1)Oc1ccc(C(=O)N(C)C)c(Cl)c1` (single isomer, unassigned) [Example 25-1, 2-chloro-N,N-dimethyl-4-((R or S)-5-(1-((R or S)-3,3,3-trifluoro-2-hydroxy-2-phenylpropanoyl)piperidin-4-yl)pentan-2-yloxy)benzamide], the Emax in experiment [1] (efficacy (% Emax) in relation to reference dual agonist T0901317, read-out: LXR alpha actiivty at max dose) amounted to 29%; in experiment [2], 91%. Besides, the results for the EC50 in experiment [1] (read-out: LXR alpha IP) and in experiment [2] were 1160 nM and 101 nM, respectively.
In the case of `CN(C)C(=O)c1ccc(OCCC2CC23CCN(C(=O)C(C)(C)c2cccc(Br)n2)CC3)cc1Cl` (single isomer, unassigned) [Example 12-20, (S or R)-4-(2-(6-(2-(6-bromopyridin-2-yl)-2-methylpropanoyl)-6-azaspiro[2.5]octan-1-yl)ethoxy)-2-chloro-N,N-dimethylbenzamide], the “LXR alpha IP” value in experiment [1] is listed as “No IP”. The Emax in experiment [1] (setting [3]) came to 0%. Moreover, in experiment [2], the EC50 is 47 nM and the Emax is 32%.
In the case of `Cc1cc(OC2CC(CC3CCN(C(=O)C(O)(c4cccc(OC5CC5)c4)C(F)(F)F)CC3)C2)ccc1C(=O)N(C)C` (single isomer, unassigned) [Example 37-12, (R or S)-4-(3-((1-(2-(3-cyclopropoxyphenyl)-3,3,3-trifluoro-2-hydroxypropanoyl)piperidin-4-yl)methyl)cyclobutoxy)-N,N,2-trimethylbenzamide], the “LXR alpha IP” value in experiment [1] is on record as “No IP”. For the same compound, the Emax in experiment [1] (setting [3]) was determined as 0%. Further, in experiment [2], the EC50 came to 63 nM and the Emax is 106%.
In the case of `O=C(c1ccc(OCCCCC2CCN(C(=O)[C@](O)(c3ccccc3)C(F)(F)F)CC2)cc1Cl)N1CCC[C@@H]1CO` (single isomer, unassigned) [Example 8-8, (R or S)-1-(4-(4-(3-chloro-4-((R or S)-2-(hydroxymethyl)pyrrolidine-1-carbonyl)phenoxy)butyl)piperidin-1-yl)-3,3,3-trifluoro-2-hydroxy-2-phenylpropan-1-one], the EC50 in experiment [1] (LXR alpha IP) was 653 nM; in experiment [2] it was 21 nM. Besides, the Emax in experiment [1] (setting [3]) was found to be 27%; in experiment [2], 44%.
Turning to `CN(C)C(=O)c1ccc(OCCC2CC23CCN(C(=O)C(C)(C)c2csc(N)n2)CC3)cc1Cl` (single isomer, unassigned) [Example 12-10, (R or S)-4-(2-(6-(2-(2-aminothiazol-4-yl)-2-methylpropanoyl)-6-azaspiro[2.5]octan-1-yl)ethoxy)-2-chloro-N,N-dimethylbenzamide], the EC50 in experiment [1] (LXR alpha IP) was determined as 3740 nM; in experiment [2], 608 nM. The Emax worked out at 21% in experiment [1] (setting [3]) and 61% in experiment [2].
As for `CN(C)C(=O)c1ccc(OCC[C@@H]2CC23CCN(C(=O)[C@](N)(c2ccccc2)C(F)(F)F)CC3)cc1Cl` (single isomer, unassigned) [Example 12-21, 4-(2-((S or R)-6-((R or S)-2-amino-3,3,3-trifluoro-2-phenylpropanoyl)-6-azaspiro[2.5]octan-1-yl)ethoxy)-2-chloro-N,N-dimethylbenzamide], the values for the EC50 in experiment [1] (LXR alpha IP) and in experiment [2] were 1400 nM and 42 nM, respectively. The Emax in experiment [1] (setting [3]) was 23%; in experiment [2], 47%.
Turning to `CN(C)C(=O)c1ccc(OCCC2CC23CCN(C(=O)C(C)(C)c2ccsc2)CC3)cc1Cl` (single isomer, unassigned) [Example 12-7, (R or S)-2-chloro-N,N-dimethyl-4-(2-(6-(2-methyl-2-(thiophen-3-yl)propanoyl)-6-azaspiro[2.5]octan-1-yl)ethoxy)benzamide], the EC50 in experiment [1] (LXR alpha IP) was determined as 589 nM; in experiment [2] it was 29 nM. In addition, the Emax in experiment [1] (setting [3]) worked out at 39%; in experiment [2], 64%.
Turning to `CN(C)C(=O)c1ccc(OCCCC2CC23CCN(C(=O)C2(c4ccccc4)CCCC2)CC3)cc1Cl` (single isomer, unassigned) [Example 14-2, (R or S)-2-chloro-N,N-dimethyl-4-(3-(6-(1-phenylcyclopentanecarbonyl)-6-azaspiro[2.5]octan-1-yl)propoxy)benzamide], the EC50 in experiment [1] (LXR alpha IP) came to 424 nM; in experiment [2], 28 nM. Moreover, the Emax was found to be 17% in experiment [1] (setting [3]) and 86% in experiment [2].
The like results for `O=C(c1ccc(OCCCCC2CCN(C(=O)C(O)(c3ccccc3)C(F)(F)F)CC2)cc1Cl)N1C[C@@H]2CC[C@H]1C2` (single isomer, unassigned) [Example 8-15, (R or S)-1-(4-(4-(4-((1S,4R)-2-azabicyclo[2.2.1]heptane-2-carbonyl)-3-chlorophenoxy)butyl)piperidin-1-yl)-3,3,3-trifluoro-2-hydroxy-2-phenylpropan-1-one] were, in that order, 410 nM, 64 nM, 9% and 36%.
As to `O=C(NC1CC1)c1ccc(OCCCCC2CCN(C(=O)[C@](O)(c3ccccc3)C(F)(F)F)CC2)cc1Cl` (single isomer, unassigned) [Example 8-2, (R or S)-2-chloro-N-cyclopropyl-4-(4-(1-(3,3,3-trifluoro-2-hydroxy-2-phenylpropanoyl)piperidin-4-yl)butoxy) benzamide], the EC50 in experiment [1] (LXR alpha IP) stood at 527 nM; in experiment [2], 13 nM. Besides, the figures for the Emax in experiment [1] (setting [3]) and in experiment [2] were 29% and 68%, respectively.
Consider `CN(C)C(=O)c1ccc(OCCC2CC23CCN(C(=O)C2(c4cc(F)ccc4F)CCC2)CC3)cc1Cl` (single isomer, unassigned) [Example 12-11, (S or R)-2-chloro-4-(2-(6-(1-(2,5-difluorophenyl)cyclobutanecarbonyl)-6-azaspiro[2.5]octan-1-yl)ethoxy)-N,N-dimethylbenzamide], for which the figures for the EC50 in experiment [1] (LXR alpha IP) and in experiment [2] were 447 nM and 12 nM, respectively. The Emax in experiment [1] (setting [3]) was found to be 24%; in experiment [2], 87%.
With `COc1cccc([C@@](O)(C(=O)N2CCC(CC(C)CC(F)(F)Oc3ccc(C(=O)N(C)C)c(Cl)c3)CC2)C(F)(F)F)c1` (single isomer, unassigned) [Example 28-1, 2-chloro-4-((R or S)-1,1-difluoro-3-methyl-4-(1-((R or S)-3,3,3-trifluoro-2-hydroxy-2-(3-methoxyphenyl)propanoyl)piperidin-4-yl)butoxy)-N,N-dimethylbenzamide], the “LXR alpha IP” value in experiment [1] is “No IP”. Also, the Emax in experiment [1] (setting [3]) stood at 0%. In addition, in experiment [2], the EC50 turned out to be 65 nM and the Emax is 62%.
For the compound `CN(C)C(=O)c1ccc(OCCCCC2CCN(C(=O)C(O)(c3cccc(Cl)c3)C(F)(F)F)CC2)cc1Cl` (single isomer, unassigned) [Example 3-2, (S or R)-2-chloro-4-(4-(1-(2-(3-chlorophenyl)-3,3,3-trifluoro-2-hydroxypropanoyl)piperidin-4-yl)butoxy)-N,N-dimethylbenzamide], the EC50 amounted to 128 nM in experiment [1] (LXR alpha IP) and 6 nM in experiment [2]. For the same compound, the Emax in experiment [1] (setting [3]) came to 37%; in experiment [2] it was 79%.
For `CC(C)Oc1cccc(C(O)(C(=O)N2CCC(CCCCOc3ccc(C(=O)N(C)C)c(Cl)c3)CC2)C(F)(F)F)c1` (single isomer, unassigned) [Example 3-11, (S or R)-2-chloro-N,N-dimethyl-4-(4-(1-(3,3,3-trifluoro-2-hydroxy-2-(3-isopropoxyphenyl)propanoyl)piperidin-4-yl)butoxy)benzamide], the figures for the EC50 in experiment [1] (LXR alpha IP) and in experiment [2] were 614 nM and 9 nM, respectively. The figures for the Emax in experiment [1] (setting [3]) and in experiment [2] were 21% and 80%, respectively.
Regarding `COc1ccccc1[C@@](O)(C(=O)N1CCC2(CC1)C[C@H]2CCCOc1ccc(C(=O)N(C)C)c(Cl)c1)C(F)(F)F` (single isomer, unassigned) [Example 14-3, 2-chloro-N,N-dimethyl-4-(3-((R or S)-6-((R or S)-3,3,3-trifluoro-2-hydroxy-2-(2-methoxyphenyl)propanoyl)-6-azaspiro[2.5]octan-1-yl)propoxy)benzamide], the “LXR alpha IP” value in experiment [1] is “No IP”. For the same compound, the Emax was determined as 6% in experiment [1] (setting [3]) and 81% in experiment [2]. For the same compound, in experiment [2], the EC50 is 41 nM.
For `CN(C)C(=O)c1ccc(OCCCCC2CCN(C(=O)c3c(F)cccc3F)CC2)nc1Cl` [Example 3-15, 2-chloro-6-(4-(1-(2,6-difluorobenzoyl)piperidin-4-yl)butoxy)-N,N-dimethylnicotinamide], in experiment [1], the “LXR alpha IP” value was “No IP”. Further, in experiment [1] (setting [3]), the Emax stood at 14%. For the same compound, in experiment [2], the EC50 stood at 328 nM and the Emax was 80%.
